In paper PMC11990924, “Inhibition of Tyrosinase and Melanogenesis by Carboxylic Acids: Mechanistic Insights and Safety Evaluation” (Molecules, 2025):

Experiments:
tyrosinase [1] = biological target: T1, tyrosinase (Agaricus bisporus, UniProt C7FF04); assay: Kinetic analysis of tyrosinase (Lineweaver–Burk); format: biochemical, mushroom; conditions: for Ki: GraphPad Prism, mixed-model or competitive model, read-out: inhibition constant (Ki); for inhibition mechanism: Lineweaver–Burk double-reciprocal plots; for inhibition constant (KIS) for enzyme–substrate complex: mixed-type inhibitors
T1 construct: purchased Sigma-Aldrich
T1 sequence (C7FF04 1-392 limits assumed): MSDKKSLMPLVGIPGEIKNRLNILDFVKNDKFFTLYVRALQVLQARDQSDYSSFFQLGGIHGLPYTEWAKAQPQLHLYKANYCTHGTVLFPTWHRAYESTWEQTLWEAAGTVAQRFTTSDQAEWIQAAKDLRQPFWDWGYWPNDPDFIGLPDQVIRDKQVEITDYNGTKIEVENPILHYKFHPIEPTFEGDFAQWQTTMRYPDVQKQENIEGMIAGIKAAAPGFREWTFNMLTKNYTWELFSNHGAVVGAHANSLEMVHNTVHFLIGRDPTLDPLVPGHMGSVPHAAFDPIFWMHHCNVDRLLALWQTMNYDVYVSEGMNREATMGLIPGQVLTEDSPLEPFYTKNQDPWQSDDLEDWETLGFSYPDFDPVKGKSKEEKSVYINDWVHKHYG
Procedure: L-DOPA solutions at various concentrations (0.5, 1, 2, and 4 mM) were prepared in PBS buffer (pH 7.4) and mixed with carboxylic acids at different concentrations and tyrosinase (final concentration of 60 U/mL). […] The reaction rates were calculated based on the OD values. To analyze the inhibition types of the four carboxylic acids on tyrosinase, double-reciprocal Lineweaver–Burk plots were constructed with 1/v (reaction rate) as the y-axis and 1/[S] (substrate concentration) as the x-axis. The maximum reaction velocity (Vmax) and Michaelis constant (Km) were determined using GraphPad Prism 10 (GraphPad Software, Massachusetts, USA).

[2] = pH of carboxylic acid mixed with PBS buffer, without tyrosinase; format: physicochemical; conditions: in PBS buffer, absence of tyrosinase
[3] = Cell viability of B16-F10 by MTT; format: cell-based; conditions: mouse, B16-F10 cells, 6 mM
Procedure: B16-F10 cells were seeded in 96-well plates at a density of 1 × 10^5 cells/mL and cultured at 37 °C with 5% CO2 for 24 h. Subsequently, various concentrations of carboxylic acids were added, and the cells were further incubated for 24 h. Then, 6 μL of MTT (5 mg/mL) was added, and the cells were cultured for an additional 4 h. Afterward, 200 μL of DMSO was added to dissolve the formazan crystals by gently pipetting up and down. The absorbance at 570 nm (OD570) was measured using a microplate reader (Infinite 200Pro, Tecan), with deionized water serving as the control. The cell viability was calculated with Equation (2): (2) [(OD570 of sample)/OD570 of control]×100%

tyrosinase [4] = biological target: T1, tyrosinase; assay: Fluorescence spectra analysis of tyrosinase; format: binding, mushroom; conditions: 6 mM; excitation 280 nm
Procedure: Carboxylic acid solutions at various concentrations were mixed with PBS buffer and tyrosinase (final concentration of 60 U/mL) and then transferred to a black 96-well plate. Fluorescence analysis was conducted using a microplate reader (Infinite 200Pro, Tecan).

B16-F10 cells = assay: Melanin content analysis of B16-F10 cells (α-MSH stimulated); format: cell-based; conditions: Mus musculus; 6 mM, B16-F10, α-MSH 1 μM, 48 h; read-out: melanin inhibition rate
Procedure: A 900 μL cell suspension with an approximate density of 50% confluence was seeded into a 12-well plate and cultured for 24 h at 37 °C with 5% CO2. Subsequently, various concentrations of carboxylic acids were added, and the cells were further incubated for 1 h. Then, 1 μL of 1 mM α-melanocyte-stimulating hormone (α-MSH) solution was added to achieve a final concentration of 1 μM, and the cells were cultured for an additional 48 h at 37 °C with 5% CO2 to stimulate melanogenesis. Afterward, the cells were digested with trypsin, collected by centrifugation at 10,000 rpm for 5 min (Andreas Hettich GmbH & Co., KG, Tuttlingen, Germany), and the supernatant was discarded. Each tube was treated with 200 μL of 1 M NaOH solution and incubated in a water bath at 60 °C for 20 min. Following incubation, the samples were vortexed to ensure homogeneity, and 200 μL of each sample was transferred to a 96-well plate. The absorbance at 405 nm (OD405) was measured using a microplate reader (Infinite 200Pro, Tecan), and the data were recorded to calculate the melanin content, with deionized water serving as the control. The reduction in melanin content was calculated with Equation (3):(3) [(OD405 of control−OD405 of sample)/OD405 of control]×100%

rabbits and mice = conditions: in vivo; cited from earlier work
[5] = biological target: tyrosinase from BioVision, Inc. (claimed to be of human origin); parameters: method as in PMID 38909081; conditions: cited from earlier work

Compound | Ki (tyrosinase [1]) | inhibition mechanism (tyrosinase [1]) | inhibition constant (KIS) for enzyme–substrate complex (tyrosinase [1]) | pH ([2]; 6 mM) | viability at 24 h, 6 mM [3] | decrease of tyrosinase fluorescence intensity (tyrosinase [4]) | inhibition at 6000 µM (B16-F10 cells) | oral LD50 (rabbits and mice) | pH ([2]; 3 mM) | IC50 [5]
O=C(O)C(O)Cc1ccccc1 (centres unmarked) [3-phenyllactic acid] | 1570 µM | mixed-type inhibition | 8.526 mM | around 6 | > 90% | 29.3% | 27.2% |  |  | 
O=C(O)CC(O)C(=O)O (centres unmarked) [malic acid] | 606 µM | mixed-type inhibition | 3.066 mM | 3.5 | > 90% | 29.0% | 33.6% | 1600 to 3200 mg/kg | 4.6 | 87.5 µM
